Results reported in ChEMBL document CHEMBL4477252, “Optimization of microtubule affinity regulating kinase (MARK) inhibitors with improved physical properties” (Bioorg Med Chem Lett, 2016).

Experiments:
[1] = molecular target: T1, MAP/microtubule affinity-regulating kinase 4 (Mus musculus, UniProt Q8CIP4); assay: Inhibition of MARK4 in mouse cortical neurons assessed as inhibition of okadaic acid-induced tau phosphorylation at S262 residue preincubated for 15 mins followed okadaic acid challenge for 1.5 hrs by immunostaining method
T1 sequence (Q8CIP4 whole entry): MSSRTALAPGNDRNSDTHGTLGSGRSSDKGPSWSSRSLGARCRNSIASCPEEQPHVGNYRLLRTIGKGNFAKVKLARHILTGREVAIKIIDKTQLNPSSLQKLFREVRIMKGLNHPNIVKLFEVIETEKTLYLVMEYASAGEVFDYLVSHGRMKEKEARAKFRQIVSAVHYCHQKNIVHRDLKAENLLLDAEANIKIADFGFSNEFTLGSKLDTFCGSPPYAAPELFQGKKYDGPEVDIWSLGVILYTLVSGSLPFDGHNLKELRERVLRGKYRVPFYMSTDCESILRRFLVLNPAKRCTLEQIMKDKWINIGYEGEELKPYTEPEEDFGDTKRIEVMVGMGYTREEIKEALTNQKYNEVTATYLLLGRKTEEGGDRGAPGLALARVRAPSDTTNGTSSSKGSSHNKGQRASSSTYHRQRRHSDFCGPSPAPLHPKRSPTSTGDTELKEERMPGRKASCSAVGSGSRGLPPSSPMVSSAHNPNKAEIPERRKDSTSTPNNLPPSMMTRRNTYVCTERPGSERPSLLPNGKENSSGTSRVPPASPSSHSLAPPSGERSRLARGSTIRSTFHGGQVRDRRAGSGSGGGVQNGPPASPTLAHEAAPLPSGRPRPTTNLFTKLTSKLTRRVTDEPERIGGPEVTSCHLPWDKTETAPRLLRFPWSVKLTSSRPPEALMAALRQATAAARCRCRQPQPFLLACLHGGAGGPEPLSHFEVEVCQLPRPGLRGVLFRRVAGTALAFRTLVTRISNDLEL

[2] = molecular target: AMP-activated protein kinase (AMPK) alpha-1/beta-1/gamma-1 (Homo sapiens, UniProt P54619+Q13131+Q9Y478); assay: Inhibition of full-length recombinant human GST and His-tagged AMPK alpha1/beta1/gamma1 expressed in baculovirus expression system by LanthaScreen assay
[3] = molecular target: Serine/threonine-protein kinase B-raf (Homo sapiens, UniProt P15056); assay: Inhibition of full-length recombinant human GST-tagged BRAF expressed in baculovirus expression system by Z'-LYTE assay
[4] = molecular target: G protein-coupled receptor kinase 6 (Homo sapiens, UniProt P43250); assay: Inhibition of full-length recombinant human GST-tagged GRK6 expressed in baculovirus expression system by Z'-LYTE assay
[5] = molecular target: Glycogen synthase kinase-3 beta (Homo sapiens, UniProt P49841); assay: Inhibition of full-length recombinant human His-tagged GSK3B expressed in baculovirus expression system by Z'-LYTE assay
[6] = molecular target: T2, NUAK family SNF1-like kinase 1 (Homo sapiens, UniProt O60285); assay: Inhibition of full-length recombinant human His-tagged NUAK1 expressed in baculovirus expression system by Adapta assay
T2 sequence (O60285 whole entry): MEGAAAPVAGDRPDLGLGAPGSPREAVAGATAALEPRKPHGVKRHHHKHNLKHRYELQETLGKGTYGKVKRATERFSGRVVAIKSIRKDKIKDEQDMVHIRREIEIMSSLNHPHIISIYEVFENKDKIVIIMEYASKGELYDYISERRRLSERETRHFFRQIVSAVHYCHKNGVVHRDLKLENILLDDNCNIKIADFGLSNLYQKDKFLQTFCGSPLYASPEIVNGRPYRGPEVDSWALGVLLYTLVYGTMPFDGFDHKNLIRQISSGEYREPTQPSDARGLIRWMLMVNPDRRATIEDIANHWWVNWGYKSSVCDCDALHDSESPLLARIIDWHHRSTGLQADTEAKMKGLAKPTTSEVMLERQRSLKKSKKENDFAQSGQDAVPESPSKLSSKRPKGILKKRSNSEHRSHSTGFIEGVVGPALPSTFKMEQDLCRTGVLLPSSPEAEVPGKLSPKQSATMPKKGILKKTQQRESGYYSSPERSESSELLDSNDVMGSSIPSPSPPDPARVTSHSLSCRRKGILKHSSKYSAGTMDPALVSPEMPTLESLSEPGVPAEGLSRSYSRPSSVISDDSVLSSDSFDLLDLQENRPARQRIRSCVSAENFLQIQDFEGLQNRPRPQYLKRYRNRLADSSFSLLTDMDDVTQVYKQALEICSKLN

[7] = molecular target: T3, 3-phosphoinositide-dependent protein kinase 1 (Homo sapiens, UniProt O15530); assay: Inhibition of full-length recombinant human His-tagged PDK1 expressed in baculovirus expression system by Z'-LYTE assay
T3 sequence (O15530 whole entry): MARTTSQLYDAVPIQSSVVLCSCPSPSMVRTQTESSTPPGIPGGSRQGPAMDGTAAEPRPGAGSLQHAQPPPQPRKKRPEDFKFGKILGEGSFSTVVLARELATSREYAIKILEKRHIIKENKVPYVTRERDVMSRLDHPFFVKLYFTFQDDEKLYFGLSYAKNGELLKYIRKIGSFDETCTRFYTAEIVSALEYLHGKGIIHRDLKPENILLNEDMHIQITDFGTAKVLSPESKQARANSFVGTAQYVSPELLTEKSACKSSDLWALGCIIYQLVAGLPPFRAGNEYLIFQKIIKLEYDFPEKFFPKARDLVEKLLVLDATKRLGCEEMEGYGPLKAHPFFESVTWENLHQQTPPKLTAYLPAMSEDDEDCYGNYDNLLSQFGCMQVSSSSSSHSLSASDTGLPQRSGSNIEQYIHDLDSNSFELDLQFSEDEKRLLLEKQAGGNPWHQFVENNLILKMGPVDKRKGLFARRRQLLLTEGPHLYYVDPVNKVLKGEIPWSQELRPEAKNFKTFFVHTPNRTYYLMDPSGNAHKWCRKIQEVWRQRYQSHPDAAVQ

[8] = molecular target: Tyrosine-protein kinase SYK (Homo sapiens, UniProt P43405); assay: Inhibition of full-length recombinant human N-terminal GST-tagged cytoplasmic SYK expressed in baculovirus expression system by Z'-LYTE assay

Chain of Serine/threonine-protein kinase B-raf (P15056 whole entry): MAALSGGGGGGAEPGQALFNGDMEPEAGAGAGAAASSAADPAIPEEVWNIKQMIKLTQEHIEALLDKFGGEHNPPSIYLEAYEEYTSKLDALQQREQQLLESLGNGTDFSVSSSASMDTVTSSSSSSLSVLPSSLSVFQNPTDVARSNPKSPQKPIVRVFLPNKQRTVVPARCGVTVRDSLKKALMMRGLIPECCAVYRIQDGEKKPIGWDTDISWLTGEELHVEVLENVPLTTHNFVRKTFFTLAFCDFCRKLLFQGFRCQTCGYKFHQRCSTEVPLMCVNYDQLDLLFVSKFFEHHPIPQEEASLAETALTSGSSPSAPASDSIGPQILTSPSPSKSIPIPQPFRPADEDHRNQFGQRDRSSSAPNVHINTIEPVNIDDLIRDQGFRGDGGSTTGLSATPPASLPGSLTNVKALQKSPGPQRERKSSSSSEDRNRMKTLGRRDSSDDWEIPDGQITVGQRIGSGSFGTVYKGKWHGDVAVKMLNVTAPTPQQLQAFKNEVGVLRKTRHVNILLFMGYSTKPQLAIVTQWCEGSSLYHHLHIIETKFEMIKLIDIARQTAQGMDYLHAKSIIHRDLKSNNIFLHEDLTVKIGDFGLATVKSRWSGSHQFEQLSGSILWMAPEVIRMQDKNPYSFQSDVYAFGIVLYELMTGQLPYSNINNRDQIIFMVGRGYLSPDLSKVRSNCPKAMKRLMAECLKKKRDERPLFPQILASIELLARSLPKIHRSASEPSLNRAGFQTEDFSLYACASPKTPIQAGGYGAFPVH
Chain of Glycogen synthase kinase-3 beta (P49841 whole entry): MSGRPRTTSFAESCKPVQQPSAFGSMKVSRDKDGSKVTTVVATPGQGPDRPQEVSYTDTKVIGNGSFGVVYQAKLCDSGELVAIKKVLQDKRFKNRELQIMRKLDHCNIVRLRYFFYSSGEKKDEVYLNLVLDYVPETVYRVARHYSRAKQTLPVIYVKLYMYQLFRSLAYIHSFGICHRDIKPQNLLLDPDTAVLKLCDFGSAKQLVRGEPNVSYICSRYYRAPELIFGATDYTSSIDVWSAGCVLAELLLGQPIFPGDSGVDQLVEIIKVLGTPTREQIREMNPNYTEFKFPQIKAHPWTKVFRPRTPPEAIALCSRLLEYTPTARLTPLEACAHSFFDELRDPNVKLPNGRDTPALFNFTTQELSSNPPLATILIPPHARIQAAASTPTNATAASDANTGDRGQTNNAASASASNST
Chain of G protein-coupled receptor kinase 6 (P43250 whole entry): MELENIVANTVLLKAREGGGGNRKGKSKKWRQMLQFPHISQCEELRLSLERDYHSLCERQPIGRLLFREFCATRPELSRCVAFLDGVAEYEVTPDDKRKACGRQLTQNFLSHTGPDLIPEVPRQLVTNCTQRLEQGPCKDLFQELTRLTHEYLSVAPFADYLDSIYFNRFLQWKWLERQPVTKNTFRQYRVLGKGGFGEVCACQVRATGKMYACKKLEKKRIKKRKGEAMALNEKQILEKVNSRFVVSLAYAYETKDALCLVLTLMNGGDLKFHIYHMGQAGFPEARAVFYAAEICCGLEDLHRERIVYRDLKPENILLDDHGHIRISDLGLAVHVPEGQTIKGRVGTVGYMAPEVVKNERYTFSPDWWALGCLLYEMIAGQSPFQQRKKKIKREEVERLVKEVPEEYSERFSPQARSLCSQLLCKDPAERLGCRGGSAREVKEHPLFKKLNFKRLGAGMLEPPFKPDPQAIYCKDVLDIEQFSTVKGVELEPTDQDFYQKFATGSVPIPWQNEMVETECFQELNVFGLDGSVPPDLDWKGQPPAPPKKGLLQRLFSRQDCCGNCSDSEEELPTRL
Chain of AMP-activated protein kinase (AMPK) alpha-1/beta-1/gamma-1 (P54619 whole entry): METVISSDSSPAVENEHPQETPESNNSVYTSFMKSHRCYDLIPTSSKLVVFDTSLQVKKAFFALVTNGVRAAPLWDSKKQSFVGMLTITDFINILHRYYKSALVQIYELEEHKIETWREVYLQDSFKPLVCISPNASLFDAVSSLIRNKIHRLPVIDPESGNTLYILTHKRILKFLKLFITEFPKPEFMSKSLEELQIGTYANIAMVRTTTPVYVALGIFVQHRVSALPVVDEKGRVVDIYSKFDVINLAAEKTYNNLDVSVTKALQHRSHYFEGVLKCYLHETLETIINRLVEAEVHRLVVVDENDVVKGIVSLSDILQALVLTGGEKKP
Chain of AMP-activated protein kinase (AMPK) alpha-1/beta-1/gamma-1 (Q9Y478 whole entry): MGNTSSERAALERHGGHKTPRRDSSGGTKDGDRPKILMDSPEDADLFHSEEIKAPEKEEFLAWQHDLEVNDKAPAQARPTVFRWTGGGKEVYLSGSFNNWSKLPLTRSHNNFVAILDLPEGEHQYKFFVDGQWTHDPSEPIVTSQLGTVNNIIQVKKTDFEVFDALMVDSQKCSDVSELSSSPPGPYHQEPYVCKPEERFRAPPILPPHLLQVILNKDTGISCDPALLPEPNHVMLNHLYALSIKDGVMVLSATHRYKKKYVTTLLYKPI
Chain of AMP-activated protein kinase (AMPK) alpha-1/beta-1/gamma-1 (Q13131 whole entry): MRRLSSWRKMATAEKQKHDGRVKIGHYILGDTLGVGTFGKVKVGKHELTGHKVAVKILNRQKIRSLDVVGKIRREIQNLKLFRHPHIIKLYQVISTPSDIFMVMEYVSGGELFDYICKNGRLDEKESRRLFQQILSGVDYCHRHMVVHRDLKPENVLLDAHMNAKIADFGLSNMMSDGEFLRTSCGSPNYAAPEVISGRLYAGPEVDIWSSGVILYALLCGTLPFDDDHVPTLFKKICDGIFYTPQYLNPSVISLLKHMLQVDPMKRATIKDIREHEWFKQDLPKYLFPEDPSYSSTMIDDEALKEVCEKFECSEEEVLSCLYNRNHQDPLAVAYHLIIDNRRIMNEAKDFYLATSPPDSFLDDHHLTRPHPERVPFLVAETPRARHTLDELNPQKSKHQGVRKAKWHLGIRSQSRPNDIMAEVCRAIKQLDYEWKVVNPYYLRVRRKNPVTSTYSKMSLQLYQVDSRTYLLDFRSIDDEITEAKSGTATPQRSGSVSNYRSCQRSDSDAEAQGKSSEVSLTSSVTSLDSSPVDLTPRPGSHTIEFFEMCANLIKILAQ

## Cn1cc(-c2cnc3c(-c4csc(C(=O)N[C@@H]5CCCC[C@@H]5N)c4)cnn3c2)cn1 (racemic)
[1]
  IC50: 2 nM
[2]
  IC50: 4.6 nM
[3]
  IC50: 19 nM
[4]
  IC50: 500 nM
[5]
  IC50: 23 nM
[6]
  IC50: 4.2 nM
[7]
  IC50: 20 nM
[8]
  IC50: 42 nM

## Cn1cc(-c2cnc3c(-c4csc(C(=O)NCC(F)(F)F)c4)cnn3c2)cn1
[1]
  IC50: 60 nM
[2]
  IC50: 26 nM
[3]
  IC50: 1500 nM
[4]
  IC50: > 100000 nM
[5]
  IC50: 84 nM
[6]
  IC50: 19 nM
[7]
  IC50: 53 nM
[8]
  IC50: 750 nM

## Cc1sc(C(=O)N[C@@H]2[C@H](N)CCCC2(F)F)cc1-c1cnn2cc(Cl)cnc12
[1]
  IC50: 280 nM
[2]
  IC50: 53 nM
[3]
  IC50: 1100 nM
[4]
  IC50: 1700 nM
[5]
  IC50: 150 nM
[6]
  IC50: 200 nM
[7]
  IC50: 330 nM
[8]
  IC50: 12000 nM

## O=C(NCC(F)(F)F)c1cc(-c2cnn3cc(-c4ccc(OCCN5CCCCC5)cc4)cnc23)cs1
[1]
  IC50: 50 nM
[2]
  IC50: < 10 nM
[3]
  IC50: 550 nM
[4]
  IC50: 17000 nM
[5]
  IC50: 220 nM
[6]
  IC50: 15 nM
[7]
  IC50: 130 nM
[8]
  IC50: 440 nM
